What was measured:
[1] = biological target: T1, Prostaglandin G/H synthase 1 (Homo sapiens, UniProt P23219); assay: Inhibition of COX1
Mus musculus [2] = assay: Antiinflammatory activity against TPA-induced mouse edema model assessed as ear thickness at 0.5 mg/ear (Rbv = 0.270 +/- 0.008 mm); assay type: functional
[3] = biological target: T1, Prostaglandin G/H synthase 1; details: at 30 µM
Description: Inhibition of COX1 at 30 uM

[4] = biological target: T2, Prostaglandin G/H synthase 2 (Homo sapiens, UniProt P35354)
T2 sequence (P35354 whole entry): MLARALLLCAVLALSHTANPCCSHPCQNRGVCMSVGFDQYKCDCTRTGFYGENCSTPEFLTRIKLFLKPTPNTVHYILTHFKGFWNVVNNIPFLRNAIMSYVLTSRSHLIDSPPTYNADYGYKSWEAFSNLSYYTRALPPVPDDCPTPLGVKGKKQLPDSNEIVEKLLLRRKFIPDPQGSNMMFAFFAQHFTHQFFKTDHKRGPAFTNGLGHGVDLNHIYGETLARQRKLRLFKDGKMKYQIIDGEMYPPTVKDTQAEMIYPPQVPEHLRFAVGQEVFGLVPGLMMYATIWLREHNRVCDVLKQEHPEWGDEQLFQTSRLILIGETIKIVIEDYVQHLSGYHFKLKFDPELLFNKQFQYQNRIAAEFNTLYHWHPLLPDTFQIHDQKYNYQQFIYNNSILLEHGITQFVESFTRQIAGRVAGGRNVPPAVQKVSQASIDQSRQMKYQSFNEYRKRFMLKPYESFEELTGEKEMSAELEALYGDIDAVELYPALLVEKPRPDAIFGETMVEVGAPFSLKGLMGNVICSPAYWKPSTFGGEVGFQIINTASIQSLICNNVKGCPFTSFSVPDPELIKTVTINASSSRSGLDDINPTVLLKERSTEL

[5] = biological target: T3, Prostaglandin G/H synthase 2 (Homo sapiens) (UniProt P35354); details: at 30 µM
T3 sequence (whole entry): T2 sequence (P35354 whole entry)
Description: Inhibition of COX2 at 30 uM

Mus musculus [6] = assay: Antiinflammatory activity against TPA-induced mouse edema model assessed as reduction in ear edema at 0.5 mg/ear; assay type: functional

T1 sequence (P23219 whole entry): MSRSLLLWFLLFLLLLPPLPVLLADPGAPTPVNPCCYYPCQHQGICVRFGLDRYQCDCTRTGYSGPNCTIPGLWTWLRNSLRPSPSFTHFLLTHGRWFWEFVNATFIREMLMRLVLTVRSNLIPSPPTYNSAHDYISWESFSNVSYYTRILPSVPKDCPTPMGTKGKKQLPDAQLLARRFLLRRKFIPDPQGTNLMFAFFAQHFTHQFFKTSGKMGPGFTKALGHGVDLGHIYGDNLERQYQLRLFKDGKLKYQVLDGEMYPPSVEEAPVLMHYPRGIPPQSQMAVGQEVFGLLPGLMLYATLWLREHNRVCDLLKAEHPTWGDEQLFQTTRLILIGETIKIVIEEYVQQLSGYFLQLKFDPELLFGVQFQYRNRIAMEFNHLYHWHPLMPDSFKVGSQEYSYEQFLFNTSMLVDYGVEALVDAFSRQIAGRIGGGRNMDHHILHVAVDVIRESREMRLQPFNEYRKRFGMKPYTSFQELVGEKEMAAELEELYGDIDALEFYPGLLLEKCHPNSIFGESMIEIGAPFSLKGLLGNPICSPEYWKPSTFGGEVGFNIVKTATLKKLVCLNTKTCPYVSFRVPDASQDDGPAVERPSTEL

Compound | IC50 [1] | inhibition [3] | IC50 [4] | inhibition [5] | Activity (Mus musculus [2]) | inhibition (INH) (Mus musculus [6])
COc1c(OC)c(O)c2c(=O)cc(C)oc2c1Cl | 27.2 µM | 66.8% | 43.4 µM | 50.3% | 0.105 mm | 61.11%
COc1cc(/C=C/C(=O)CC(=O)/C=C/c2ccc(O)c(OC)c2)ccc1O |  | 59% |  |  |  | 
COc1ccc2c(c1)c(CC(=O)O)c(C)n2C(=O)c1ccc(Cl)cc1 [INDOMETHACIN] |  |  |  |  | 0.05 mm | 81.48%
C=CCOc1cc2oc(C)cc(=O)c2c(O)c1OCC=C | 21.6 µM | 74.1% | 13.5 µM | 89.5% | 0.053 mm | 80.24%
COc1cc(O)c2c(=O)cc(C)oc2c1 [EUGENIN] | 17.8 µM | 85.6% | 20.1 µM | 78.5% | 0.071 mm | 73.2%
Cc1cc(=O)c2c(O)c(O)c(O)cc2o1 | 14.4 µM | 87.5% | 8.87 µM | 94.1% | 0.025 mm | 90.74%
COc1c(OC)c(O)c2c(=O)cc(C)oc2c1Br | 29.3 µM | 63.8% | 25.4 µM | 67% | 0.08 mm | 70.37%
CC(C)=CCOc1cc2oc(C)cc(=O)c2c(O)c1OCC=C(C)C | 17.2 µM | 82.3% | 10.3 µM | 91.7% | 0.04 mm | 85.18%
COc1c(OC)c(O)c2c(=O)cc(C)oc2c1I |  | 57.2% |  | 37.7% |  | 

The next lines start with results.

IC50 [1] | inhibition [3] | IC50 [4] | inhibition [5] | Compound | Activity (Mus musculus [2]) | inhibition (INH) (Mus musculus [6])
18.7 µM | 80.7% | 15.5 µM | 83.2% | COc1cc2oc(C)cc(=O)c2c(O)c1OCC=C(C)C | 0.06 mm | 77.77%
19.8 µM | 78.1% | 15.4 µM | 85% | COc1cc2oc(C)cc(=O)c2c(O)c1O | 0.058 mm | 78.4%
 | 28.4% |  | 52.5% | CCCCOc1c(OC)c(OC)cc2oc(C)cc(=O)c12 |  | 
 | 40.2% |  | 48.4% | CCCOc1c(OC)c(OC)cc2oc(C)cc(=O)c12 |  | 
26 µM | 68.3% | 18 µM | 81.5% | C=CCOc1c(OC)cc2oc(C)cc(=O)c2c1O | 0.077 mm | 71.3%
 | 59% |  | 46.2% | COc1cc2oc(C)cc(=O)c2c(OC(C)=O)c1OC |  | 
 | 54.9% |  | 49.8% | CCOc1c(OC)c(OC)cc2oc(C)cc(=O)c12 |  | 
38.3 µM | 56.2% | 21.2 µM | 73.9% | C=CCOc1c(OC)c(OC)cc2oc(C)cc(=O)c12 | 0.09 mm | 66.66%
 | 63.4% |  | 48.1% | COc1cc2oc(C)cc(=O)c2c(OCc2ccccc2)c1OC |  | 
22.3 µM | 71.5% | 19.7 µM | 80.2% | COc1cc2oc(C)cc(=O)c2c(O)c1OC [STELLATIN] | 0.082 mm | 69.44%
 | 70.3% |  | 47.4% | COc1cc2oc(C)cc(=O)c2c(OC)c1OC |  | 
22.9 µM | 70.1% | 17.6 µM | 82.5% | COc1cc2oc(C)cc(=O)c2c(OCC=C(C)C)c1OC | 0.061 mm | 77.16%
 | 45.8% |  | 68.1% | COc1cc2oc(C)cc(=O)c2c(OC(=O)c2ccccc2)c1OC |  | 
